Laboratory results published in US7078404B2, “Acyl-3-carboxyphenylurea derivatives, processes for preparing them and their use” (Sanofi-Aventis Deutschland GmbH, priority 2002, dated 2006).

These molecules were tested against T1, Human glycogen phosphorylase a (Homo sapiens, UniProt P06737) (assay: Glycogen phosphorylase a activity test). Details: 10 μM concentration of the test substance; GPa measured in the reverse direction, in vitro.
T1 sequence (P06737 1-847): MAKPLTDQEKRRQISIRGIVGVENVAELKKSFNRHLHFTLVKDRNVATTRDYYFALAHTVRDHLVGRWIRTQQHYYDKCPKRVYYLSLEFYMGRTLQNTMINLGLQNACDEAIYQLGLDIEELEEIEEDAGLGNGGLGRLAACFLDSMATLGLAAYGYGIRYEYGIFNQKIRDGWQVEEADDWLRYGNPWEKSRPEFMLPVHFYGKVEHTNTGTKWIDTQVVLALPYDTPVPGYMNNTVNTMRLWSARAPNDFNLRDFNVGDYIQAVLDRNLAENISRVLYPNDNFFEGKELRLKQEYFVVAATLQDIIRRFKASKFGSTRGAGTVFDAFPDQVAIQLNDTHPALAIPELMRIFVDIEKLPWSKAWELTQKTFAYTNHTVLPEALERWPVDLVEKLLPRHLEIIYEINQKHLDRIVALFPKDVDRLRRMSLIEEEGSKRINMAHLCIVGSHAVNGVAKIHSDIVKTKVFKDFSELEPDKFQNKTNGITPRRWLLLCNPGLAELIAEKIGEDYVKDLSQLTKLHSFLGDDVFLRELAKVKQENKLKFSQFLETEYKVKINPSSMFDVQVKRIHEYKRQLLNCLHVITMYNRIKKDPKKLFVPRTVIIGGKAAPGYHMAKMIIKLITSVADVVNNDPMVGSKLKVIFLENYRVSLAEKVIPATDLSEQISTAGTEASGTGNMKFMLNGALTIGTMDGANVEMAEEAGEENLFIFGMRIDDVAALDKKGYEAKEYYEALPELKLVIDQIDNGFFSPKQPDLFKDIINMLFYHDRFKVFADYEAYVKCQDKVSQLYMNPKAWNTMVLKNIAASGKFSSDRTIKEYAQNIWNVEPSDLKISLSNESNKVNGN
Type: biochemical
Procedure: Glycogen Phosphorylase a Activity Test
The effect of compounds on the activity of the active form of glycogen phosphorylase (GPa) was measured in the reverse direction by monitoring the synthesis of glycogen from glucose 1-phosphate by determining the release of inorganic phosphate. All the reactions were carried out as duplicate determinations in 96-well microtiter plates (Half Area Plates, Costar No. 3696), with the change in absorption due to the formation of the reaction product being measured, at the wavelength specified below, in a Multiscan Ascent Elisa Reader (Lab Systems, Finland). In order to measure the enzymic activity of GPa in the reverse direction, the conversion of glucose 1-phosphate into glycogen and inorganic phosphate was measured in accordance with the general method of Engers et al. (Engers HD, Shechosky S, Madsen NB, Can J Biochem 1970 July;48(7): 746–754) but with the following modifications: Human glycogen phosphorylase a (for example containing 0.76 mg of protein/ml (Aventis Pharma Deutschland GmbH), dissolved in buffer solution E (25 mM β-glycerophosphate, pH 7.0, 1 mM EDTA and 1 mM dithiothreitol), was diluted with buffer T (50 mM Hepes, pH 7.0, 100 mM KCl, 2.5 mM EDTA, 2.5 mM MgCl2.6H2O), and addition of 5 mg of glycogen/ml, to a concentration of 10 μg of protein/ml. Test substances were prepared as a 10 mM solution in DMSO and diluted down to 50 μM with buffer solution T. 10 μl of 37.5 mM glucose, dissolved in buffer solution T and 5 mg/ml of glycogen, and also 10 μl of a solution of human glycogen phosphorylase a (10 μg of protein/ml) and 20 μl of glucose 1-phosphate, 2.5 mM, were added to […] of the solution. The basal value of the activity of the glycogen phosphorylase a in the absence of test substance was determined by adding 10 μl of buffer solution T (0.1% DMSO). The mixture was incubated at room temperature for 40 minutes and the inorganic phosphate which was released was measured using the general method of Drueckes et al. (Drueckes P, Schinzel R, Palm D, Anal Biochem […] Sep. 1;230(10):173–177) but with the following modifications: 50 μl of a stop solution of 7.3 mM ammonium molybdate, 10.9 mM zinc acetate, 3.6% ascorbic acid, 0.9% SDS are added to 50 μl of the enzyme mixture. After 60 minutes of incubation at 45° C., the absorption was measured at 820 nm. In order to determine the background absorption, the stop solution was added immediately after adding the glucose 1-phosphate solution in a separate assay. This test was carried out using a 10 μM concentration of the test substance in order to determine the respective inhibition of glycogen phosphorylase a by the test substance in vitro.

SMILES	% inhibition at 10 μM	inhibition at 10 µM
O=C(NC(=O)c1cc(Cl)ccc1Cl)Nc1cc(C(=O)O)ccc1Cl [Example 6]	57%	–
NC(CO)(CO)CO.O=C(NC(=O)c1ccc(Cl)cc1Cl)Nc1cc(C(=O)O)ccc1Oc1ccccc1 [Example 24]	65%	–
O=C(NC(=O)c1ccc(Cl)cc1Cl)Nc1cc(C(=O)O)ccc1Cl [Example 12]	83%	–
COc1ccc(C(=O)O)cc1NC(=O)NC(=O)c1ccccc1C [Example 8]	77%	–
NC(CO)(CO)CO.O=C(NC(=O)c1cc(Cl)ccc1Cl)Nc1cc(C(=O)O)ccc1Cl [Example 7]	54%	–
COc1ccc(C(=O)O)cc1NC(=O)NC(=O)c1ccccc1Cl [Example 2]	75%	–
CCCCOc1ccc(C(=O)O)cc1NC(=O)NC(=O)c1ccc(Cl)cc1Cl [Example 21]	64%	–
O=C(NC(=O)c1ccccc1Cl)Nc1cc(C(=O)O)ccc1Cl [Example 11]	49%	–
CCOc1ccc(C(=O)O)cc1NC(=O)NC(=O)c1ccc(Cl)cc1Cl [Example 13]	86%	–
O=C(NC(=O)c1ccc(Cl)cc1Cl)Nc1cc(C(=O)O)ccc1Oc1ccccc1 [Example 23]	55%	–
O=C(NC(=O)c1ccc(Cl)cc1F)Nc1cc(C(=O)O)ccc1Cl [Example 15]	61%	–
O=C(NC(=O)c1ccc(F)cc1F)Nc1cc(C(=O)O)ccc1Cl [Example 17]	52%	–
O=C(NC(=O)c1ccc(Cl)cc1Cl)Nc1cc(C(=O)O)ccc1OCCO [Example 19]	90%	–
O=C(NC(=O)c1ccc(Cl)cc1Cl)Nc1cc(C(=O)O)ccc1O [Example 3]	74%	–
O=C(NC(=O)c1ccc(Cl)cc1Cl)Nc1cc(C(=O)O)ccc1F [Example 4]	75%	–
COc1ccc(C(=O)O)cc1NC(=O)NC(=O)c1ccc(Cl)c(Cl)c1 [Example 10]	41%	–
COc1ccc(C(=O)O)cc1NC(=O)NC(=O)c1ccc(Cl)cc1F [Example 16]	48%	–
O=C(NC(=O)c1ccc(F)cc1Cl)Nc1cc(C(=O)O)ccc1C(F)(F)F [Example 25]	49%	–
COc1ccc(C(=O)O)cc1NC(=O)NC(=O)c1cc(Cl)ccc1Cl [Example 9]	81%	–
COCCOc1ccc(C(=O)O)cc1NC(=O)NC(=O)c1ccc(Cl)cc1Cl [Example 22]	72%	–
COc1ccc(C(=O)O)cc1NC(=O)NC(=O)c1ccc(F)cc1F [Example 18]	69%	–
O=C(NC(=O)c1ccc(Cl)cc1Cl)Nc1cc(C(=O)O)ccc1C(F)(F)F [Example 26]	44%	–
CCCOc1ccc(C(=O)O)cc1NC(=O)NC(=O)c1ccc(Cl)cc1Cl [Example 20]	62%	–
COc1ccc(C(=O)O)cc1NC(=O)NC(=O)c1ccc(Cl)cc1Cl [Example 1, 3-[3-(2,4-Dichlorobenzoyl)ureido]-4-methoxybenzoic acid]	–	95%
COc1ccc(C(=O)O)cc1NC(=O)NC(=O)c1ccc(C)cc1C [Example 14]	57%	–
